# Measurements taken from PubChem BioAssay (NCI).
#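 Each compound was tested at five concentrations against cells in 96-well plates for 48 hours. TGI: concentration producing complete growth inhibition.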
# Key:
# Assay in all cases: inhibition of tumour cell growth, NCI panel, 48 h
# T-47D breast = test system: T-47D breast
# SK-OV-3 ovarian = test system: SK-OV-3 ovarian
# MDA-MB-231 breast = test system: MDA-MB-231 breast
# 786-0 renal = test system: 786-0 renal
# HOP-62 NSCLC = test system: HOP-62 NSCLC
# LOX IMVI melanoma = test system: LOX IMVI melanoma
# SK-MEL-5 melanoma = test system: SK-MEL-5 melanoma
# SNB-75 CNS = test system: SNB-75 CNS
# KM12 colon = test system: KM12 colon
# IGROV1 ovarian = test system: IGROV1 ovarian
# SK-MEL-28 melanoma = test system: SK-MEL-28 melanoma
# OVCAR-8 ovarian = test system: OVCAR-8 ovarian
# UACC-62 melanoma = test system: UACC-62 melanoma
# HCT-116 colon = test system: HCT-116 colon
# HOP-92 NSCLC = test system: HOP-92 NSCLC
# NCI-H23 lung = test system: NCI-H23 lung
# A549 NSCLC = test system: A549 NSCLC
# EKVX NSCLC = test system: EKVX NSCLC
# HL-60(TB) leukemia = test system: HL-60(TB) leukemia
# UO-31 renal = test system: UO-31 renal
# HT29 colon = test system: HT29 colon
# SR leukemia = test system: SR leukemia
# HCC-2998 colon = test system: HCC-2998 colon
# OVCAR-4 ovarian = test system: OVCAR-4 ovarian
# OVCAR-5 ovarian = test system: OVCAR-5 ovarian
# SW-620 colon = test system: SW-620 colon
# PC-3 prostate = test system: PC-3 prostate
# SF-295 CNS = test system: SF-295 CNS
# SK-MEL-2 melanoma = test system: SK-MEL-2 melanoma
# NCI-H226 lung = test system: NCI-H226 lung
# NCI/ADR-RES ovarian = test system: NCI/ADR-RES ovarian
# MDA-MB-435 = test system: MDA-MB-435
# HS 578T breast = test system: HS 578T breast
# MOLT-4 leukemia = test system: MOLT-4 leukemia
# SNB-19 CNS = test system: SNB-19 CNS
# TK-10 renal = test system: TK-10 renal
# M14 melanoma = test system: M14 melanoma
# CCRF-CEM leukemia = test system: CCRF-CEM leukemia
# OVCAR-3 ovarian = test system: OVCAR-3 ovarian
# UACC-257 melanoma = test system: UACC-257 melanoma
# NCI-H460 lung = test system: NCI-H460 lung
# CAKI-1 renal = test system: CAKI-1 renal
# BT-549 breast = test system: BT-549 breast
# DU-145 prostate = test system: DU-145 prostate
# A498 renal = test system: A498 renal
# K-562 leukemia = test system: K-562 leukemia
# HCT-15 colon = test system: HCT-15 colon
# COLO 205 colon = test system: COLO 205 colon
# MALME-3M melanoma = test system: MALME-3M melanoma
# SF-268 CNS = test system: SF-268 CNS
# U251 CNS = test system: U251 CNS
# RPMI-8226 leukemia = test system: RPMI-8226 leukemia
# RXF 393 renal = test system: RXF 393 renal
# NCI-H522 lung = test system: NCI-H522 lung
# ACHN renal = test system: ACHN renal
# MCF7 breast = test system: MCF7 breast
# SN12C renal = test system: SN12C renal
# SF-539 CNS = test system: SF-539 CNS
structure (smiles),measurement,setting,value
O=S(=O)(NC(c1ccccc1)(c1cc2ccccc2[nH]1)c1cc2ccccc2n1S(=O)(=O)c1ccccc1)c1ccccc1 (stereo not drawn),TGI,T-47D breast,> 100 µM
same,TGI,SK-OV-3 ovarian,92.4 µM
same,TGI,MDA-MB-231 breast,> 100 µM
same,TGI,786-0 renal,> 100 µM
same,TGI,HOP-62 NSCLC,> 100 µM
same,TGI,LOX IMVI melanoma,> 100 µM
same,TGI,SK-MEL-5 melanoma,> 100 µM
same,TGI,SNB-75 CNS,> 100 µM
same,TGI,KM12 colon,> 100 µM
same,TGI,IGROV1 ovarian,> 100 µM
same,TGI,SK-MEL-28 melanoma,> 100 µM
same,TGI,OVCAR-8 ovarian,> 100 µM
same,TGI,UACC-62 melanoma,> 100 µM
same,TGI,HCT-116 colon,> 100 µM
same,TGI,HOP-92 NSCLC,> 100 µM
same,TGI,NCI-H23 lung,> 100 µM
same,TGI,A549 NSCLC,> 100 µM
same,TGI,EKVX NSCLC,> 100 µM
same,TGI,HL-60(TB) leukemia,> 100 µM
same,TGI,UO-31 renal,> 100 µM
same,TGI,HT29 colon,> 100 µM
same,TGI,SR leukemia,> 100 µM
same,TGI,HCC-2998 colon,> 100 µM
same,TGI,OVCAR-4 ovarian,> 100 µM
same,TGI,OVCAR-5 ovarian,> 100 µM
same,TGI,SW-620 colon,> 100 µM
same,TGI,PC-3 prostate,> 100 µM
same,TGI,SF-295 CNS,> 100 µM
same,TGI,SK-MEL-2 melanoma,> 100 µM
same,TGI,NCI-H226 lung,> 100 µM
same,TGI,NCI/ADR-RES ovarian,> 100 µM
same,TGI,MDA-MB-435,> 100 µM
same,TGI,HS 578T breast,> 100 µM
same,TGI,MOLT-4 leukemia,> 100 µM
same,TGI,SNB-19 CNS,> 100 µM
same,TGI,TK-10 renal,> 100 µM
same,TGI,M14 melanoma,> 100 µM
same,TGI,CCRF-CEM leukemia,> 100 µM
same,TGI,OVCAR-3 ovarian,> 100 µM
same,TGI,UACC-257 melanoma,> 100 µM
same,TGI,NCI-H460 lung,> 100 µM
same,TGI,CAKI-1 renal,> 100 µM
same,TGI,BT-549 breast,> 100 µM
same,TGI,DU-145 prostate,> 100 µM
same,TGI,A498 renal,> 100 µM
same,TGI,K-562 leukemia,> 100 µM
same,TGI,HCT-15 colon,> 100 µM
same,TGI,COLO 205 colon,> 100 µM
same,TGI,MALME-3M melanoma,> 100 µM
same,TGI,SF-268 CNS,> 100 µM
same,TGI,U251 CNS,> 100 µM
same,TGI,RPMI-8226 leukemia,> 100 µM
Cc1cc(S(N)(=O)=O)c(S/C(=N\Nc2ccc([N+](=O)[O-])cc2)c2ccc(Cl)cc2)cc1Cl,TGI,T-47D breast,> 100 µM
same,TGI,SK-OV-3 ovarian,3.93 µM
same,TGI,MDA-MB-231 breast,8.27 µM
same,TGI,RXF 393 renal,3.49 µM
same,TGI,NCI-H522 lung,11.5 µM
same,TGI,HOP-62 NSCLC,> 100 µM
same,TGI,SK-MEL-5 melanoma,33.3 µM
same,TGI,SNB-75 CNS,4.01 µM
same,TGI,KM12 colon,4.15 µM
same,TGI,IGROV1 ovarian,12.8 µM
same,TGI,SK-MEL-28 melanoma,4.91 µM
same,TGI,UACC-62 melanoma,20.2 µM
same,TGI,HCT-116 colon,> 100 µM
same,TGI,HOP-92 NSCLC,5.4 µM
same,TGI,NCI-H23 lung,4.91 µM
same,TGI,A549 NSCLC,7.48 µM
same,TGI,EKVX NSCLC,28.3 µM
same,TGI,HL-60(TB) leukemia,> 100 µM
same,TGI,ACHN renal,10.4 µM
same,TGI,UO-31 renal,22 µM
same,TGI,HT29 colon,4.36 µM
same,TGI,SR leukemia,9.01 µM
same,TGI,MCF7 breast,4.59 µM
same,TGI,OVCAR-4 ovarian,4.48 µM
same,TGI,SW-620 colon,> 100 µM
same,TGI,SF-295 CNS,5.46 µM
same,TGI,SK-MEL-2 melanoma,9.58 µM
same,TGI,NCI-H226 lung,6.57 µM
same,TGI,MDA-MB-435,6.88 µM
same,TGI,HS 578T breast,> 100 µM
same,TGI,MOLT-4 leukemia,> 100 µM
same,TGI,SNB-19 CNS,27 µM
same,TGI,TK-10 renal,3.54 µM
same,TGI,M14 melanoma,> 100 µM
same,TGI,CCRF-CEM leukemia,> 100 µM
same,TGI,OVCAR-3 ovarian,3.85 µM
same,TGI,UACC-257 melanoma,8.7 µM
same,TGI,NCI-H460 lung,5.3 µM
same,TGI,CAKI-1 renal,14.9 µM
same,TGI,BT-549 breast,35.4 µM
same,TGI,DU-145 prostate,5.51 µM
same,TGI,A498 renal,21.8 µM
same,TGI,K-562 leukemia,> 100 µM
same,TGI,SN12C renal,10.9 µM
same,TGI,HCT-15 colon,77.9 µM
same,TGI,COLO 205 colon,> 100 µM
same,TGI,MALME-3M melanoma,4.31 µM
same,TGI,SF-268 CNS,6.58 µM
same,TGI,U251 CNS,5.41 µM
same,TGI,SF-539 CNS,4.19 µM
same,TGI,RPMI-8226 leukemia,28.3 µM
